Measurements as given in US5051519A, “Novel antiviral and antitumor terpene hydroquinones and methods of use” (Harbor Branch Oceanographic Institution, Inc., priority 1990, dated 1991).
Converted amounts (≈) assume the structure as drawn.

What was measured:
[1] = system: MDCK cells; assay: Growth inhibition (cytotoxicity) of MDCK cells in the PR-8 antiviral assay, neutral red; assay type: cell-based, canine (Canis familiaris); conditions: Canis lupus familiaris, 50% growth inhibition
[2] = system: P388 murine leukemia cells; assay: Antiproliferative effect against murine P388 leukemia cells, MTT; assay type: cell-based; conditions: Mus musculus, 48 hour exposure
Method: The crude ethanolic extract and pure compound was tested for toxicity against murine P388 leukemia cells. P388 cells obtained from J. Mayo, National Cancer Institute, Bethesda, Md., were maintained in Roswell Park Memorial Institute medium 1640 (RPMI-1640) supplemented with 10% horse serum. All cell lines were cultured in plastic tissue culture flasks and kept in an incubator at 37° C. in humidified air containing 5% CO2. Antibiotic-free stock cultures of P388 cells were subcultured to 10^5 cells/ml by dilution in fresh growth medium at 2-3 day intervals. The mean generation time of primary cultures was 14-17 hours.
To assess the antiproliferative effects of agents against P388 cells, 200 μl cultures (96-well tissue culture plates, Nunc, Denmark) were established at 1×10^6 cells/ml in drug-free medium or medium containing the crude extract at a final dilution of 1:500 of compound 1 or 2 at various concentrations. Solvent for all dilutions was methanol, which was removed from plates under vacuum. All experimental cultures were initiated in medium containing Gentamicin sulfate ([…]; Schering Corporation, Kenilworth, N.J.). After 48 hour exposures, P388 cells were enumerated using 3-[4,5-dimethylthiazol-2-yl]-2,5-diphenyltetrazolium bromide (MTT) as described below (Alley, M. C. et al. [1988] Cancer Res. 48:589).
To quantitate the effects on cell proliferation, 75 μl of warm growth medium containing 5 mg/ml MTT was added to each well and cultures were returned to the incubator for 90 minutes. To spectrophotometrically quantitate formation of reduced formazan, plates were centrifuged (900 xg, 5 minutes), culture fluids removed by aspiration, and 200 μl of acidified isopropanol (2 ml concentrated HCl/liter isopropanol) added per well. The absorbance of the resulting solutions were measured at 570 nm with a plate reader (MR700 Microplate Reader, Dynatech Laboratories, Chantilly, Va.). […] A linear relationship between P388 cell number and formazan production was found over the range of cell densities observed in these experiments.

[3] = system: influenza virus type A strain PR8; assay: Antiviral assay: cytopathic effect (CPE) reduction, influenza virus type A strain PR8 in MDCK cells, neutral red dye uptake; assay type: cell-based, Influenza A strain A/PR/8/34 (HINI)
[4] = molar restatement of μg per 200 μl value

Structure (SMILES)	IC50 [1, 4] [µM]	IC50 ([1]; 72 h, read on day 3) [µg/mL]	IC50 [2] [µg/mL]	in vitro therapeutic index (TI) ([3]; dog, mdck)	activity against influenza virus type A strain PR-8 (in words) [3]	in vitro therapeutic index (TI) ([3]; ratio of IC50/EC50)
COc1ccc(O)c2c1CC1(C)C(C)CCC3C(C)(C)CCCC31O2 (stereo not shown) [Compound 1]	19	6.5	13 (≈ 37.7 µM)	9	–	–
COc1ccc(OC(C)=O)c2c1CC1(C)C(C)CCC3C(C)(C)CCCC31O2 (stereo not shown) [Compound 2]	15	5	23.8 (≈ 61.6 µM)	100	–	–
C[C@H]1CC[C@H]2C(C)(C)CCC[C@]23Oc2ccc(O)cc2C[C@]13C [aureol, reference compound]	11.6	3.65	9 (≈ 28.6 µM)	–	strong antiviral activity	116
